Assay results: patent US7947279B2, “Peptide having hydrolase activity” (The Trustees of Columbia University in the City of New York, priority 2005, dated 2011)
“Also recorded” adds a separate entry of the source.

Experiments:
[1] = test system: PPF in hippocampal slices; assay: Paired pulse facilitation (PPF) in hippocampal slices; type: cell-based, mouse
PKA [2] = assay: PKA kinase activity in hippocampal slices; type: cell-based, mouse
[3] = test system: SY5Y neuroblastoma cells transfected with a degron CL1-GFP expression vector; assay: Proteasome reporter assay (GFP^u); type: cell-based, human; settings: substance alone
Experimental: Proteasome reporter assays. In this cell line, human neuroblastoma SH-SY5Y cells were permanently transfected with reporter construct consisting of green fluorescent protein (GFP) conjugated at its C-terminus to a short degron sequence (CL-1) (Gilon et al., 1998). […] The SY5Y-GFP^u cells were grown in 1×DMEM (Invitrogen) supplemented with 15% fetal bovine serum (JRH), 1× penicillin/streptomycin (Gibco). After indicated treatments, GFP^u concentrations were assayed by densitometric analysis of immunoblots of total protein extracts (10 ug/lane) using monoclonal GFP antibodies (Santa Cruz Biotechnology) and visualized with HRP-conjugated secondary antibodies and ECL (Pierce). Loading equalization was normalized by probing blots with anti-ERK antibodies (Santa Cruz Biotechnology).

[4] = test system: CA1-LTP in hippocampal slices; assay: CA1-LTP in hippocampal slices (theta-burst); type: cell-based, mouse; settings: for baseline transmission in slices without tetanic stimulation: non-tetanized slices; for rescue of LTP at different concentrations, S18Y versus TAT-HA-Uch-L1 (words): 1 hr pre-treatment, then Aβ 200 nM 20 min, as low as 5 nM; for Aβ-induced impairment of CA1-LTP (words): fusion protein 20 nM 1 hr, then plus Aβ 200 nM 20 min
PKA [5] = assay: PKA kinase activity in hippocampal cultures; type: cell-based, rat
Experimental: PKA Kinase Activity Measurement. Primary hippocampal neurons from E18 rats were dissociated and cultured as described (Vitolo et al, Proc Natl Acad Sci USA 99:13217-13221 (2002)). […]
Hippocampal slices were lysed with RIPA lysis buffer and homogenized by Dounce homogenizer on ice. 5 DIV primary cultures were treated for 24 hrs and cells were lysed with RIPA lysis buffer.
Levels of intracellular PKA kinase activity were measured by PKA Kinase Activity Assay Kit (Stressxpress) according to manufacturer's instructions.
(§1) Preparation of Cell Cultures. Hippocampal cell cultures were prepared as previously described (Vitolo et al., 2002). In cell culture experiments fetuses at embryonic day 18 from timed pregnant Sprague-Dawley rats (Taconic Farms) were used. Fetuses were sacrificed and the hippocampi removed. Neurons were then dissociated, plated on 6 well-plates coated with poly-L-lysine and maintained in a defined serum-free medium containing minimum essential medium supplemented with N-2, glucose, albumin, pyruvic acid, antibiotics and antimycotics. […] 5 DIV cells were used for the experiments.

[6] = test system: BST at the Schaffer collateral/CA1 connection of hippocampal slices; assay: Basal synaptic transmission (BST) in hippocampal slices; type: cell-based, mouse
cAMP = assay: Intracellular cAMP enzyme immunoassay; type: cell-based, rat; settings: Aβ 3 μM 24 hrs alone
Experimental: Intracellular cAMP Enzyme Immunoassay. Hippocampal neurons from E18 rats were dissociated and plated on poly-L-lysine coated 6-well plates in minimum essential medium supplemented with N-2, glucose, albumin, pyruvic acid, antibiotics and antimycotics. […] After 24 hours, cell lysates were obtained and intracellular cAMP levels were measured using cAMP Biotrak Enzymeimmunoassay (EIA) System (Amersham) in accordance with manufacturer's instructions.

Uch-L1 = assay: Hydrolase (ubiquitin-AMC) assay on hippocampal slices; type: cell-based, mouse; settings: 200 nM Aβ alone
Experimental: Slice preparation. Mice were decapitated and their hippocampi removed. […] Slices were permitted to recover from cutting for at least 90 min. before recordings. For experiments with lactacystin, slices were perfused with the drug or vehicle for 2 to 4 hrs in a small volume (10 ml) chamber.
Briefly, hippocampal tissue was treated with tissue protein extraction reagent (T-PER; Pierce) containing freshly added EDTA-free protease inhibitors. Homogenate was centrifuged at 10,000 rpm for 5 min. Protein concentration was measured in the supernatant using the BCA protein assay reagent. In some experiments hydrolysis was initiated by adding 10 μl of 20 nM Uch-L1 or Uch-L3 (Boston Biochem). The hydrolase assay was performed using fluorogenic ubiquitin-7-amino-4-methylcoumarin (ubiquitin-AMC) (Boston Biochem) as a substrate. The substrate was diluted in assay buffer (50 mM Tris-HCL, 0.5 mM EDTA, 5 mM dithiothreitol and 0.1 mg/ml ovalbumin, pH 7.6). Each reaction mixture containing 400 nM substrate and 100 μg enzyme sample was incubated for 5 min at room temperature. The reaction was monitored using a fluorescence spectrophotometer (CytoFluor Series 4000, ABI Inc) at 25° C. The free AMC fluorophore was excited at 380 nm and measured at 460 nm. […] In some experiments, hydrolysis was also measured on the soluble and insoluble fractions (FIG. 28D). In a group of experiments hydrolysis was measured by mixing ubiquitin-AMC with 20 nM TAT fusion proteins (FIG. 27C). In other experiments the substrate was Nedd8-AMC (Boston Biochem).

monoubiquitin = assay: Monoubiquitin levels (quantitative Western blot); type: cell-based, mouse
Experimental: (§2) Western Blotting: Protein levels were assessed using standard procedures. Protein extraction was performed using buffer with and without detergent. For the extraction of protein using detergent, hippocampal tissues and cultured hippocampal neurons (5 DIV) were homogenized in RIPA buffer (50 mM Tris-HCl pH 7.4, 1% Triton X-100, 1% sodium deoxycholate, 0.1% SDS, 150 mM sodium chloride, 10 mM sodium fluoride, 30 mM sodium pyrophosphate, 50 mM sodium orthovanadate) containing 1× complete protease inhibitor (Roche) and 1 mM phenylmethylsulfonyl fluoride (PMSF). For extraction of proteins without detergent, hippocampal extracts were homogenized with disposable dounce homogenizers in buffer A, containing 10 mM HEPES pH 7.3, 300 mM sucrose, protease 1× complete protease inhibitor (Roche) and PMSF. After centrifugation at 10,000×g supernatant proteins were resolved on a 8% or 4-20% gradient Tris-Glycine gel, transferred onto PVDF or nitrocellulose membrane and blocked in 5% skim milk in PBS-Tween 0.1% (PBS-T). Membranes were probed with primary antibodies, and after washing with PBS-T incubated with an appropriate HRP-conjugated secondary antibody. The following antibodies were used: mouse monoclonal anti-ubiquitin (Chemicon), rabbit polyclonal anti-pCREB (Upstate Biotech.), rabbit polyclonal anti-PKA-RIIα (Santa Cruz Biotech. Inc), mouse monoclonal anti-Uch-L1 (Novocastra), monoclonal mouse anti-HA (Santa Cruz Biotech. Inc), and anti-PKA IIα. Detection was performed using HRP-conjugated secondary antibodies (Pierce, Rockford, Ill.). To control loading and transfer, protein immunoreactivities were normalized against total extracellular signal-regulated protein kinases (ERK1/2) levels with a rabbit analyzed using a rabbit polyclonal anti-ERK1/2 antibody (Cell Signaling Technology, Inc). NIH IMAGE was used to analyze the scanned blots and quantify the intensity of the protein signals.

phospho-CREB = assay: Phospho-CREB immunofluorescence in hippocampal slices; type: cell-based, mouse; settings: for tetanus-induced increase in phospho-CREB (words): Aβ alone
PKA RIIα = PKA RIIα levels in hippocampal slices (Western blot); type: cell-based, mouse; settings: for PKA RIIα levels (words): Aβ 200 nM 20 min alone
Experimental: as §2

phospho-CREB at Ser-133 = assay: Phospho-CREB (Ser-133) Western blot in hippocampal cultures; type: cell-based, rat; settings: for glutamate-induced CREB phosphorylation (words): 3 μM Aβ 24 hrs alone; for effect of Aβ on glutamate-induced CREB phosphorylation (words): fusion protein 100 nM, 3 μM Aβ 24 hrs, 50 μM glutamate 15 min
Experimental: as §2, §1

[7] = prolonged exposure lactacystin 10 μM
[8] = lactacystin 10 μM, 2 to 4 hour exposure

For `CC(=O)N[C@@H](CSC(=O)[C@]1([C@@H](O)C(C)C)NC(=O)[C@H](C)[C@@H]1O)C(=O)O` [lactacystin, reference compound], the “PPF” value ([1]; lactacystin 10 μM, 2-4 hrs) was “markedly reduced”, the “PPF at 50 ms interval” value [1, 7] was 150.96±10.18% and the “PPF at 300 ms interval” value [1, 7] was 119.11±5.43%. The PKA activity (PKA [2]; lactacystin 10 μM 1 hr pretreatment, TAT-HA-Uch-L1 plus Aβ) was 74.9±3.21%, the “GFP^u levels” value [3] was “much larger increase in GFP” and the “LTP” value ([4]; lactacystin 10 μM, 2-4 hrs) was “markedly reduced; also recorded: blocked”. The LTP [4, 8] was “approximately 50 % that of vehicle treated slices”, the “LTP” value ([4]; lactacystin 10 μM, 15 min) was “did not change; also recorded: does not affect; also recorded: did not affect CA1-LTP” and the “baseline transmission in slices without tetanic stimulation” value [4] was “did not affect baseline transmission”. For the same molecule, the “LTP at 60 min” value [4, 7] was 116.17±14.69%, the “LTP at 120 min” value [4, 7] was 119.25±12.82 % of baseline and the “beneficial effect of TAT-HA-Uch-L1 on PKA activity” value (PKA [5]; lactacystin 10 μM for 1 hr) was “blocked the beneficial effect”. The “BST” value ([6]; lactacystin 10 μM, 2-4 hrs) was “markedly reduced; also recorded: strongly reduced”, the “BST (slope of the input-output curve at 35 V)” value [6, 8] was “approximately 50 % that of vehicle treated slices” and the “BST” value ([6]; lactacystin 10 μM, 15 min) was “did not change; also recorded: does not affect; also recorded: did not affect BST”. For the same molecule, the “BST at 35V stimulation” value [6, 7] was 0.93±0.06 mV/ms.

With `CCCCCCOC(=O)[C@]1(O)C[C@@H]2O[C@@]1(C)n1c3ccccc3c3c4c(c5c6ccccc6n2c5c31)C(=O)NC4` [KT5720, reference compound] the “reversal of LTP reduction by Uch-L1 fusion protein” value ([4]; KT5720 1 μM, Uch-L1 fusion protein 20 nM, Aβ 200 nM) was “blocked”.

“Aβ: oligomeric Aβ42 prepared from lyophilized synthetic peptide (American Peptide) [reference compound]” was tested, and the “PKA activity in slices” value (PKA [2]; 200 nM Aβ for 20 min alone) was “reduced”, the PKA activity (PKA [2]; 200 nM Aβ for 20 minutes) was 71.75±2.21 % of control and the “GFP^u levels” value [3] was “increase in GFP levels”. The “cAMP levels” value (cAMP) was “reduced cAMP levels”, the “LTP” value ([4]; Aβ 200 nM alone) was “markedly reduced; also recorded: LTP was reduced” and the “LTP at 120 min after tetanus” value ([4]; oligomeric Aβ 200 nM, 20 min perfusion) was 136.34±13.40 % of baseline slope. For the same molecule, the “ubiquitin-c-terminal hydrolase enzymatic activity” value (Uch-L1) was 72.36±6.81 % of TAT-HA treated WT slices, the “decrease of monoubiquitin levels” value (monoubiquitin; oligomeric Aβ42 200 nM for 20 min) was ~70% and the “monoubiquitin levels” value (monoubiquitin; substance alone) was “reduced”. For the same molecule, the “PKA activity in cultures” value (PKA [5]; 3 μM Aβ for 24 hrs alone) was “reduced”, the “tetanus-induced increase in phospho-CREB (words)” value (phospho-CREB) was “blocks the increase in phosphorylated CREB; also recorded: blocked the increase in phospho-CREB; also recorded: blockade of the increase in CA1-phospho-CREB” and the “tetanus-induced increase in phospho-CREB (words)” value (phospho-CREB; listed as Aβ42) was “blocked the increase in CA1 immunofluorescence”. For the same molecule, the “phospho-CREB immunofluorescence without theta-burst” value (phospho-CREB; no tetanus) was “did not increase immunofluorescence; also recorded: did not modify immunofluorescence; also recorded: neither Aβ42 alone nor TAT-HA-Uch-L1 alone nor TAT-HA-Uch-L1 paired with Aβ42 induced changes”, the “BST in WT slices (words)” value ([6]; fusion protein 20 nM 1 hr or Aβ 200 nM 20 min, alone) was “did not reveal any significant difference among treatments; also recorded: does not affect CA1-BST” and the “PKA RIIα levels (words)” value (PKA RIIα) was “increase in PKA RIIα levels”. The “PKA RIIα levels (words)” value (PKA RIIα; listed as Aβ42) was “marked increase in RIIα”, the “PKA RIIα levels (words)” value (PKA RIIα; listed as amyloid-beta) was “increased” and the RIIα levels (PKA RIIα; Aβ42 200 nM for 20 minutes) was 163.68±10.51 % of TAT-HA control slices. The “glutamate-induced CREB phosphorylation (words)” value (phospho-CREB at Ser-133) was “annulled the increase in phospho-CREB” and the “glutamate-induced CREB phosphorylation (words)” value (phospho-CREB at Ser-133; listed as Aβ42) was “strong decrease in CREB phosphorylation”.

B1: TAT-HA-Uch-L1(S18Y): mutant TAT-HA-Uch-L1 construct, S18Y (ligase site), made by site-directed mutagenesis (protein, UniProt P09936 1-220, looked up, variant S18Y)
Ubiquitin carboxyl-terminal …: MQLKPMEINPEMLNKVLYRLGVAGQWRFVDVLGLEEESLGSVPAPACALLLLFPLTAQHENFRKKQIEELKGQEVSPKVYFMKQTIGNSCGTIGLIHAVANNQDKLGFEDGSVLKQFLSETEKMSPEDRAKCFEKNEAIQAAHDAVAQEGQCRVDDKVNFHFILFNNVDGHLYELDGRMPFPVNHGASSEDTLLKDAAKVCREFTEREQGEVRFSAVALC
modifications: fused to HIV TAT transduction peptide and HA tag
notes: mutant TAT-HA-Uch-L1 construct, S18Y (ligase site), made by site-directed mutagenesis
B1 was tested, and the “rescue of LTP at different concentrations, S18Y versus TAT-HA-Uch-L1 (words)” value [4] was “no difference between the two forms”, the “rescue of LTP at different concentrations, S18Y versus TAT-HA-Uch-L1 (words)” value ([4]; listed as TAT-HA-Uch-L1 (S18Y)) was “No difference was detected” and the “Aβ-induced impairment of CA1-LTP (words)” value [4] was “protected; also recorded: completely reversed”. The “Aβ-induced impairment of CA1-LTP (words)” value ([4]; listed as TAT-HA-Uch-L1 (S18Y)) was “significantly enhanced the amplitude of LTP”, the “LTP in slices not treated with Aβ (words)” value ([4]; fusion protein 20 nM, 1 hr, WT slices, 3 theta-burst trains) was “did not affect the amounts of potentiation” and the “baseline transmission in slices without tetanic stimulation” value [4] was “Neither TAT-HA-Uch-L1(C90S) nor TAT-HA-Uch-L1(S18Y) affected baseline; also recorded: nor affected basal transmission”. The “effect of Aβ on glutamate-induced CREB phosphorylation (words)” value (phospho-CREB at Ser-133) was “totally blocked the effect of Aβ on CREB phosphorylation; also recorded: completely opposed” and the “effect of Aβ on glutamate-induced CREB phosphorylation (words)” value (phospho-CREB at Ser-133; listed as TAT-HA-Uch-L1 (S18Y)) was “completely opposed”.
